{"source": "PubChem BioAssay (NCI)", "note": "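Cultured in 96-well plates, cells were exposed to test compound for 48 hours across five concentrations. GI50: concentration for 50% inhibition of growth. The concentration for full growth arrest is given as TGI.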", "data": [{"system": "TK-10 renal", "assay": "NCI tumour cell line growth inhibition, 48 h", "units": {"GI50": "µM", "TGI": "µM"}, "values": [{"smiles": "O=C1C=CC(=O)c2cc3cc(CBr)ccc3cc21", "GI50": 3.54, "TGI": 16.7}, {"smiles": "Cc1cc(N(CCC#N)CCC#N)ccc1N=Nc1ccc(C(=O)O)cc1", "TGI": "> 100"}, {"smiles": "[Cl][Hg][c]1cc[c]([Hg][Cl])o1", "GI50": 1.7, "TGI": 3.1}, {"smiles": "CN(C)CC1CCCC/C1=N/OC(=O)c1ccc(Cl)cc1", "note": "(stereo unspecified)", "TGI": "> 100"}, {"smiles": "N#CC(C(=O)C(=O)C(C#N)c1ccc(Br)cc1)c1ccc(Br)cc1", "note": "(stereo unspecified)", "TGI": 30.6}, {"smiles": "COc1cccc(C2=NC(C(C)C)CO2)c1", "note": "(stereo unspecified)", "TGI": "> 100"}, {"smiles": "O=C1/C(=C/c2cccc(Cl)c2Cl)N=C(c2ccccc2)N1C1CC1", "GI50": 10.7, "TGI": 27.7}, {"smiles": "CCOC(=O)C(=[N+]=[N-])[Si](C)(C)C", "TGI": "> 100"}, {"smiles": "Cc1c2c(C#N)nccc2c(C)c2c1c1ccccc1n2Cc1ccccc1", "TGI": "> 100"}, {"smiles": "COc1ccc(-c2nn(-c3ccc(NC(=O)c4ccc(Cl)c(Cl)c4)cc3)cc2-c2ccncc2)cc1Cl", "GI50": "> 11.1", "TGI": "> 50"}, {"smiles": "CCCc1nc(NC#N)nc(C(=O)Nc2ccccc2)c1CC", "TGI": "> 100"}, {"smiles": "O=C(CCc1n[nH]c(=S)o1)Nc1ccccc1C(F)(F)F", "TGI": "> 100"}, {"smiles": "COc1cc2c(cc1OCCCNC(=O)c1cccc3c(=O)c4ccccc4[nH]c13)N=C[C@@H]1CCCN1C2=O", "GI50": "< 0.0434", "TGI": 2.66}, {"smiles": "Cc1ccc(NC(=O)CCc2cc(C(C)(C)C)nc(=S)[nH]2)cc1C", "TGI": "> 100"}, {"smiles": "Cc1[nH]c2ccccc2c1C(=O)/C=C/c1ccccc1O", "TGI": "> 100"}, {"smiles": "O=C(Nc1nc(=S)c2c(ncn2CCOC(=O)c2ccccc2)[nH]1)c1ccccc1", "TGI": "> 100"}, {"smiles": "COc1ccc(CC2NCCc3c2[nH]c2ccccc32)cc1", "note": "(stereo unspecified)", "TGI": "> 100"}, {"smiles": "CCOc1ccc(NC(=O)CC#N)cc1", "TGI": "> 100"}, {"smiles": "O=C(/C=C/c1cccc2ccccc12)c1ccccc1Cl", "TGI": 28.1}, {"smiles": "COc1ccc(Nc2nnc(-c3cc(O)ccc3O)s2)cc1", "GI50": 48.4, "TGI": "> 50"}, {"smiles": "Cc1ccc(/C=C/C(=O)c2sc(-c3nc(C)c(C(=O)/C=C/c4ccc(C)cc4)s3)nc2C)cc1", "TGI": "> 100"}, {"smiles": "O=C1/C(=C/c2ccc(Cl)cc2)CCC1CCN1CCOCC1", "note": "(stereo unspecified)", "TGI": "> 100"}, {"smiles": "Cn1cc(-c2csc(-c3c[nH]c4ccc(F)cc34)n2)c2cnccc21", "GI50": 2.22, "TGI": 3.75}, {"smiles": "CCC[CH2][Sn]([Cl])([CH2]CCC)[CH2]CCC", "GI50": 0.129, "TGI": 0.261}, {"smiles": "O=c1ccn([C@H]2CSC[C@@H](CO)C2)c(=O)[nH]1", "TGI": "> 100"}, {"smiles": "COc1cc(-n2cc(-c3ccc(F)cc3)[nH]c2=O)cc(OC)c1OC", "GI50": "> 100", "TGI": "> 100"}, {"smiles": "C1CN2CCN3CCN4CCN1[P+]243", "TGI": "> 100"}]}, {"system": "CCRF-CEM leukemia", "assay": "NCI tumour cell line growth inhibition, 48 h", "units": {"GI50": "µM", "TGI": "µM"}, "values": [{"smiles": "CN(C)CC[PH+](c1ccccc1)c1ccccc1.CN(C)CC[PH+](c1ccccc1)c1ccccc1.[Cl-].[Pd+2]", "GI50": 23.9, "TGI": "> 100"}, {"smiles": "COc1cc(NCc2ccc3nc(N)nc(N)c3c2C)cc(OC)c1OC", "note": "(tested in a mixture with another compound)", "TGI": 86}, {"smiles": "Cc1nn(-c2ccc(Cl)cc2)c2nc3c(nc12)C(=O)c1ccccc1-3", "GI50": "> 100", "TGI": "> 100"}, {"smiles": "O=C(c1ccccc1Br)C(F)(F)F", "TGI": "> 100"}, {"smiles": "COc1ccc(NC(=O)/C(Cc2cc(=O)oc3cc(O)ccc23)=N\\NC(C)(C)C)c(OC)c1", "TGI": "> 100"}, {"smiles": "CCOc1ccc(NC(=O)C(=O)CC(=O)c2c(C)n([O-])c3ccccc3[n+]2=O)cc1", "TGI": "> 100"}, {"smiles": "CCCC(=O)Nc1cc2c3c(c1)CCCN3CCC2", "TGI": "> 10"}, {"smiles": "Cc1cc(Cl)ccc1NC(=O)C(=O)Cc1nc2ccccc2o1", "TGI": "> 100"}, {"smiles": "OCC1OC(c2nc(C3=NCCCN3)cs2)C(O)C1O", "note": "(stereo unspecified)", "TGI": "> 100"}, {"smiles": "O=C1C=CC(=O)c2cc3cc(CBr)ccc3cc21", "GI50": 1.89, "TGI": "> 100"}, {"smiles": "CCC(C)COC(=O)c1ccc(N=Cc2ccc(C=Nc3ccc(C(=O)OCC(C)CC)cc3)cc2)cc1", "note": "(stereo unspecified)", "TGI": "> 100"}, {"smiles": "COc1cc(F)ccc1-c1ncnc(Nc2cccc(CS(C)(=N)=O)c2)n1", "note": "(stereo unspecified)", "GI50": 0.447, "TGI": "> 100"}, {"smiles": "[Cl][Hg][c]1cc[c]([Hg][Cl])o1", "GI50": 0.295, "TGI": 8.75}, {"smiles": "CN(C)CC1CCCC/C1=N/OC(=O)c1ccc(Cl)cc1", "note": "(stereo unspecified)", "TGI": "> 100"}, {"smiles": "N#CC(C(=O)C(=O)C(C#N)c1ccc(Br)cc1)c1ccc(Br)cc1", "note": "(stereo unspecified)", "TGI": "> 100"}]}]}
